Values belong to the molecule of their own block, whether it stands above or below them.
What was measured:
[1] = Characterization as pH probes: fluorescence intensity versus pH; type: physicochemical; conditions: for fluorescence intensity under acidic conditions: pH 1-6; for fluorescence intensity under basic conditions: pH 9-12
From the text: In addition, the absorption and fluorescence wavelengths of the compound of Formula 97 well match currently available laser lines (488 nm, 532 nm, and 550 nm).
That is, the compound of Formula 111 as a pH probe emitted strong fluorescence at pH 2-6 and the compound of Formula 97 as a pH probe emitted strong fluorescence at pH 8-12.

[2] = Absorption spectra, emission spectra, molar extinction coefficients and quantum yields of the dye compounds; type: physicochemical
[3] = tested on: IgG from mouse serum (primary); assay: FLISA plate fluorescence (bioactivity) of dye-conjugated secondary antibody on coated primary IgG; type: binding; conditions: for Fluorescence: dye-conjugated goat anti-mouse IgG
Experimental: 1. IgG from mouse serum (primary) was dissolved to a concentration of 10 μg/ml in coating buffer.
2. 100 μl of the solution was divided into each well of a FLISA H/B black corning plate.
3. After top sealing, the plate was incubated in the dark at room temperature for 2 h.
4. Each well was washed three times with 300 μl of washing buffer.
5. 300 μl of blocking buffer was placed into each well. After top sealing, the plate was incubated in the dark at room temperature for 1 h.
6. After removal of the blocking buffer, the wells were washed three times with washing buffer.
7. 100 μl of a dye-conjugated secondary antibody (10 μg/ml) was placed into each well. After top sealing, the plate was incubated in the dark at room temperature for 1 h.
8. After removal of the solution, each well was washed three times with 200 μl of washing buffer.
9. 100 μl of PBS was placed into each sample-containing well.
10. Fluorescence was measured with a microplate reader.
The procedure of Experimental Example 4 was repeated except that the compound of Formula 3 was used.
The procedure of Experimental Example 4 was repeated except that the compound of Formula 50 was used.

[4] = Absorption spectra, emission spectra, molar extinction coefficients and quantum yields of the dye compounds; type: physicochemical; conditions: Table 1; solvent DMSO
Experimental: Absorption spectra (λabs), emission spectra (λem), molar extinction coefficients (ε), and quantum yields of the compounds of Formulae 1-7 were measured and the results are shown in Table 1.
Absorption spectra (λabs), emission spectra (λem), molar extinction coefficients, and quantum yields of the compounds of Formulae 44-53 were measured and the results are shown in Table 4.
The products of the two factors (molar extinction coefficient×fluorescence quantum yield) for the inventive dye compounds were much greater than that for the comparative compound.

goat anti-mouse IgG = assay: Absorption and fluorescence emission spectra of goat anti-mouse IgG labeled with the dye
Experimental: Goat anti-mouse IgG was labeled with Alexa Fluor® 568 (Thermo Fisher Scientific) and the compound of Formula 1 and their absorption spectra and fluorescence emission spectra were recorded.
FIG. 1a is an absorption spectrum of goat anti-mouse IgG labeled with the compound of Formula 1, FIG. 1b is an absorption spectrum of goat anti-mouse IgG labeled with Alexa Fluor® 568, FIG. 1c is a fluorescence emission spectrum of goat anti-mouse IgG labeled with the compound of Formula 1, and FIG. 1d is a fluorescence emission spectrum of goat anti-mouse IgG labeled with Alexa Fluor® 568.
Goat anti-mouse IgG was labeled with Alexa Fluor® 594 (Thermo Fisher Scientific) and the compound of Formula 3 and their absorption spectra and fluorescence emission spectra were recorded.
FIG. 2a is an absorption spectrum of goat anti-mouse IgG labeled with the compound of Formula 3, FIG. 2b is an absorption spectrum of goat anti-mouse IgG labeled with Alexa Fluor® 594, FIG. 2c is a fluorescence emission spectrum of goat anti-mouse IgG labeled with the compound of Formula 3, and FIG. 2d is a fluorescence emission spectrum of goat anti-mouse IgG labeled with Alexa Fluor® 594.

[5] = tested on: mitochondria, HeLa A431 cells; assay: Selectivity for mitochondria: co-localization with MitoTracker Green FM in HeLa A431 cells; type: cell-based; conditions: dye 0.5 μM
Experimental: The specific selectivity of the compound of Formula 97 for mitochondria was investigated. To this end, HeLa A431 cells were co-localized with the compound of Formula 97 and a commercially available mitochondrial marker (MTG, 0.2 μM MitoTracker Green FM for mitochondria).
OPM images were acquired at 571-650 nm (Formula 97, λex=552 nm) and 498-540 nm (MTG, λex=488 nm) and are shown in FIGS. 6a and 6b, respectively. FIG. 6c is a merged image of FIGS. 6a and 6b. The Pearson's co-localization coefficient (A) was calculated using the LAS AF software. [MTG]=0.2μM for 30 min incubation,λex=488 nm [Formula 97]=0.5μM for 30 min incubation,λex=552 nm

[6] = Photophysical properties incl. two-photon cross-sections (femtosecond fluorescence measurement technique); type: physicochemical
Experimental: All measurements were performed in DMSO, ethanol, and PBS buffer. Two-photon cross-sections (δ) were measured using a femtosecond (fs) fluorescence measurement technique.

[7] = dye-conjugated secondary antibody, plate fluorescence

pH at which the pH probe emitted strong fluorescence [1]: 2-6 pH
fluorescence intensity under acidic conditions [1]: increased
fluorescence intensity under basic conditions [1]: decreased
Quantum yield ([2]; Table 6, solvent PBS (pH 7.4)): 0.53
ε (molar extinction coefficient) ([2]; Table 6, solvent PBS (pH 7.4)): 55,000 M^−1cm^−1
λabs ([2]; Table 6, solvent PBS (pH 7.4)): 530 nm
λem ([2]; Table 6, solvent PBS (pH 7.4)): 585 nm
SMILES: CC1(C)C2=[N+](CCC3Oc4cc(N5CCN(CCCCCC(=O)O)CC5)ccc4C=C23)c2ccccc21 (stereo not drawn) [Formula 111]

ε (molar extinction coefficient) ([2]; Table 1, solvent DMSO): 66,000 M^−1cm^−1
λem ([2]; Table 1, solvent DMSO): 617 nm
Q.Y. (quantum yield) [4]: 0.91
λabs [4]: 584 nm
aggregation compared with the Alexa Fluor dye (goat anti-mouse IgG): less aggregated than Alexa Fluor® 568
fluorescence emission intensity compared with the Alexa Fluor dye (goat anti-mouse IgG): higher than that of Alexa Fluor® 568
SMILES: CC1(CCCCCC(=O)O)C2=[N+](CCC3Oc4cc(N(CCCS(=O)(=O)O)CCCS(=O)(=O)O)ccc4C=C23)c2ccc(S(=O)(=O)[O-])cc21 (stereo not drawn) [Formula 1]
D/P ratio at which the dye-secondary antibody was conjugated to the primary antibody with the highest efficiency ([3]; dye-conjugated goat anti-mouse IgG on IgG from mouse serum): ~4.8
Fluorescence ([3]; D/P ratio 2.202771): 104.026
Fluorescence ([3]; D/P ratio 4.888795): 127.5422
Fluorescence ([3]; D/P ratio 8.141409): 95.4
Fluorescence ([3]; D/P ratio 11.30465): 91.8519
Fluorescence ([3]; D/P ratio 12.45994): 75.1
bioactivity compared with the Alexa Fluor dye [3, 7]: better bioactivity than Alexa Fluor® 568
brightness values compared with the Alexa Fluor dye [3, 7]: much higher than those of Alexa Fluor® 568

pH at which the pH probe emitted strong fluorescence [1]: 8-12 pH
fluorescence intensity under acidic conditions [1]: decreased
fluorescence intensity under basic conditions [1]: increased
d: Peak two-photon cross-section ([6]; Buffer (PBS buffer)): 35 10^−50 cm^4s per photon (GM)
dΦ: Two-photon action cross-section ([6]; Buffer (PBS buffer)): 22 GM
Φ: Fluorescence quantum yield ([6]; Buffer (PBS buffer)): 0.63
λ^(2)max^abs: Maximum wavelength in two-photon absorption spectrum ([6]; Buffer (PBS buffer)): 920 nm
λmax^fl: Maximum wavelength in single-photon emission spectrum ([6]; Buffer (PBS buffer)): 565 nm
eΦ: Molar extinction coefficient × fluorescence quantum yield ([6]; Buffer (PBS buffer), in M-1cm-1): 8820
Φ: Fluorescence quantum yield ([6]; DMSO): 0.94
λmax^fl: Maximum wavelength in single-photon emission spectrum ([6]; DMSO): 567 nm
dΦ: Two-photon action cross-section ([6]; EtOH): 14 GM
λ^(2)max^abs: Maximum wavelength in two-photon absorption spectrum ([6]; EtOH): 720 nm
Quantum yield ([2]; Table 6, solvent DMSO): 0.94
ε (molar extinction coefficient) ([2]; Table 6, solvent DMSO): 35,000 M^−1cm^−1
λabs ([2]; Table 6, solvent DMSO): 551 nm
λem ([2]; Table 6, solvent DMSO): 568 nm
Quantum yield ([2]; Table 6, solvent EtOH): 0.90
ε (molar extinction coefficient) ([2]; Table 6, solvent EtOH): 47,000 M^−1cm^−1
λabs ([2]; Table 6, solvent EtOH): 555 nm
λem ([2]; Table 6, solvent EtOH): 567 nm
Quantum yield ([2]; Table 6, solvent PBS): 0.63
ε (molar extinction coefficient) ([2]; Table 6, solvent PBS): 14,000 M^−1cm^−1
λabs ([2]; Table 6, solvent PBS): 541 nm
λem ([2]; Table 6, solvent PBS): 565 nm
SMILES: CC1(C)C2=C3C=C4C=CC(=O)C=C4OC3CCN2c2ccccc21 (stereo not drawn) [Formula 97]
staining selectivity for mitochondria [5]: mitochondria were predominantly stained
degree of overlapping (A), Pearson's co-localization coefficient with Mitotracker Green FM ([5]; MTG 0.2 μM, 30 min incubation, LAS AF software): 0.74
